Test results published in patent US11420998B2, “Aromatic-cationic peptides and methods for using same” (Stealth Biotherapeutics Inc., priority 2011, dated 2022).
Square brackets hold non-standard residues; d marks the D form. Ends that are not written are not given here. Peptide text beside a SMILES is read from it. Dmt = Cc1cc(O)cc(C)c1C[C@H](N)C(=O)O

Columns and labels:
[1] = tested on: several mammalian cell types; details: energy-independent manner (Zhao et al., 2003); cited from earlier work
in vivo = assay: in vivo
Experimental: Six weeks after induction of RAS, animals were similarly anesthetized, the degree of stenosis determined by angiography, and subjects were treated with PTRA or sham. Heating pads maintained the animal's body temperature by about 37° C. during surgery, and PTRA and stenting performed under fluoroscopic guidance, as previously described. In addition, ARAS subjects were treated with a continuous intravenous infusion of peptide 0.050 mg/kg or an equal volume of saline vehicle from 30 min before to 3.5 hrs after PTRA or sham. […] Urinary samples were collected before peptide infusion and 210 min after PTRA.
4 mL venous whole blood samples were collected from peptide-treated animals at baseline (immediately before peptide infusion), immediately before PTRA, and 30 and 180 min post-reperfusion. Venous blood were drawn using syringes into BD Vacutainer® PST™ Plasma Separation Tubes (lavender top) containing K2EDTA, 10 mL/tube. Tubes were gently inverted 8 times and kept in an ice water bath until centrifugation. Within an hour samples were centrifuged in a swing bucket centrifuge at 1000-1300 RCF (or […]) for 15 min at 4° C. Plasma were harvested from individual blood tubes, placed in a single polypropylene vials (or screw-cap tubes) and stored at approximately −80° C. until assay.
The plasma concentration of D-Arg-2′,6′-Dmt-Lys-Phe-NH2 was determined using a qualified LC/MS/MS assay in K2-EDTA pig plasma. The assay employed deuterium labeled d5-D-Arg-2′,6′-Dmt-Lys-Phe-NH2 as the analytical internal standard (IS). […] Positive (M+2H)^2+ ions for D-Arg-2′,6′-Dmt-Lys-Phe-NH2 and the IS (d5-D-Arg-2′,6′-Dmt-Lys-Phe-NH2) were monitored in MRM mode. Drug-to-IS peak area ratios for the standards were used to create a linear calibration curve ranging from 2.5 to 1000 ng/mL.
Peptide IV infusion started at 30 minutes prior to the PTRA procedure and continued for 210 minutes at 0.05 mg/kg/h.

[2] = tested on: inner mitochondrial membrane; details: cited from earlier work
mu-opioid receptor = mu-opioid receptor (Homo sapiens, UniProt P35372); details: stated without data; assays cited; cited from earlier work
Chain of mu-opioid receptor (P35372 whole entry, species assumed): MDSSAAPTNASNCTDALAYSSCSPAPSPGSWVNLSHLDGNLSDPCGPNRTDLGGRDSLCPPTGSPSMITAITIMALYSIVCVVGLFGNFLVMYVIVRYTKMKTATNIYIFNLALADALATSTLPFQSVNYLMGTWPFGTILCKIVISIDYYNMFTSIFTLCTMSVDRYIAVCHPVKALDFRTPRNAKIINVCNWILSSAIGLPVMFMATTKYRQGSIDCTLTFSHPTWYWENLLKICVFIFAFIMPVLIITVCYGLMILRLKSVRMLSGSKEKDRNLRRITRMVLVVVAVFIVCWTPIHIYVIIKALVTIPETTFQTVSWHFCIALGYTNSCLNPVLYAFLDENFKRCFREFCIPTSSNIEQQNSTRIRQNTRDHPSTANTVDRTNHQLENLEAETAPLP

2′,6′-Dmt-D-Arg-Phe-Lys-NH2
penetration of the plasma membrane [1]: readily penetrates

Cc1cc(O)cc(C)c1C[C@H](NC(=O)[C@H](N)CCCNC(=N)N)C(=O)N[C@@H](CCCCN)C(=O)N[C@@H](Cc1ccccc1)C(N)=O [D-Arg-2′,6′-Dmt-Lys-Phe-NH2] (H-[dR][Dmt]KF-NH2)
Mean peptide Concentration (in vivo; 0 min from peptide infusion (−30 min from PTRA), 3.5-h IV infusion 0.05 mg/kg/h): BQL
Mean peptide Concentration (in vivo; 30 min from peptide infusion (time of PTRA), IV infusion 0.05 mg/kg/h): 100.6 ± 36.2 ng/mL
Mean peptide Concentration (in vivo; 30 min from peptide infusion (time of PTRA), IV infusion 0.05 mg/kg/h, listed as Peptide): 100.6 ng/mL
level at 0.5 h (in vivo; pig, plasma, iv, 0.05 mg/kg/h, Mean peptide Concentration, 30 min from peptide infusion (time of PTRA), IV infusion 0.05 mg/kg/h): ~100 ng/mL
level at 1 h (in vivo; pig, plasma, iv, 0.05 mg/kg/h, Mean peptide Concentration, 60 min from peptide infusion (30 min from PTRA), IV infusion 0.05 mg/kg/h): 118 ± 23.7 ng/mL
level at 1.5 h (in vivo; pig, plasma, iv, 0.05 mg/kg/h, Mean peptide Concentration, 90 min from peptide infusion (60 min from PTRA), IV infusion 0.05 mg/kg/h): 125 ± 21.4 ng/mL
level at 3.5 h (in vivo; pig, plasma, iv, 0.05 mg/kg/h, Mean peptide Concentration, 210 min from peptide infusion (180 min from PTRA), IV infusion 0.05 mg/kg/h): 111 ± 42 ng/mL
time to apparent steady state concentration (in vivo; post start of IV infusion): 60 to 90 min
concentration in the inner mitochondrial membrane [2]: 500-5000 fold

F[dR]FK-NH2
mu-opioid receptor agonist activity (mu-opioid receptor): does not have mu-opioid receptor agonist activity

Tyr-D-Arg-Phe-Lys-NH2
mu-opioid receptor agonist activity (mu-opioid receptor): has mu-opioid receptor agonist activity
